Test results reported in ChEMBL document CHEMBL1201862, “PubChem BioAssay data set” (2004).
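48-hour exposure; five concentrations; linearly interpolated endpoints. GI50 marks 50% less growth.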 Calls of active or inactive are those of the source. No stated cut-off is given here; in the data, active = GI50 up to about 1.1 µM and inactive = higher.

Legend:
Experiment in all cases: NCI tumour cell line growth inhibition, 48 h
T47D = system: T47D
OVCAR-5 = system: OVCAR-5
SK-MEL-28 = system: SK-MEL-28
NCI-H226 = system: NCI-H226
SK-OV-3 = system: SK-OV-3
SF-268 = system: SF-268
SNB-75 = system: SNB-75
M14 = system: M14
BT-549 = system: BT-549
MCF7 = system: MCF7
HCT-15 = system: HCT-15
UO-31 = system: UO-31
SNB-19 = system: SNB-19
CAKI-1 = system: CAKI-1
HT-29 = system: HT-29
OVCAR-4 = system: OVCAR-4
SK-MEL-5 = system: SK-MEL-5
KM12 = system: KM12
SW-620 = system: SW-620
COLO 205 = system: COLO 205
TK-10 = system: TK-10
CCRF-CEM = system: CCRF-CEM
A549 = system: A549
NCI-H522 = system: NCI-H522
OVCAR-3 = system: OVCAR-3
ACHN = system: ACHN
SF-539 = system: SF-539
RPMI-8226 = system: RPMI-8226
SK-MEL-2 = system: SK-MEL-2
IGROV-1 = system: IGROV-1
UACC-62 = system: UACC-62
HCC 2998 = system: HCC 2998
Malme-3M = system: Malme-3M
SN12C = system: SN12C
MOLT-4 = system: MOLT-4
A498 = system: A498
EKVX = system: EKVX
SR = system: SR
OVCAR-8 = system: OVCAR-8
HOP-92 = system: HOP-92
UACC-257 = system: UACC-257
MDA-MB-231 = system: MDA-MB-231
MDA-MB-435 = system: MDA-MB-435
NCI-H23 = system: NCI-H23
HOP-62 = system: HOP-62
Hs-578T = system: Hs-578T
U-251 = system: U-251
RXF 393 = system: RXF 393
LOX IMVI = system: LOX IMVI
PC-3 = system: PC-3
NCI-H460 = system: NCI-H460
786-0 = system: 786-0
DU-145 = system: DU-145
SF-295 = system: SF-295
HCT-116 = system: HCT-116
NCI/ADR-RES = system: NCI/ADR-RES
MDA-N = system: MDA-N
K562 = system: K562

Question: `C/C(=N/NC(=O)c1ccncc1)c1ccc(NC(=O)C(=O)Nn2c(S)nc3ccccc3c2=O)cc1` was tested. Which GI50 (T47D) did it give?
Answer: > 100 µM (inactive)

Question: And the GI50 (OVCAR-5)?
Answer: > 100 µM (inactive)

Question: And the GI50 (SK-MEL-28)?
Answer: > 100 µM (inactive)

Question: What about the GI50 (NCI-H226) of the same molecule?
Answer: > 100 µM (inactive)

Question: What about the GI50 (SK-OV-3) of the same molecule?
Answer: > 100 µM (inactive)

Question: What about the GI50 (SF-268) of the same molecule?
Answer: > 100 µM (inactive)

Question: What about the GI50 (SNB-75) of the same molecule?
Answer: > 100 µM (inactive)

Question: And the GI50 (M14)?
Answer: > 100 µM (inactive)

Question: And the GI50 (BT-549)?
Answer: > 100 µM (inactive)

Question: And the GI50 (MCF7)?
Answer: > 100 µM (inactive)

Question: And the GI50 (HCT-15)?
Answer: > 100 µM

Question: What about the GI50 (UO-31) of the same molecule?
Answer: > 100 µM (inactive)

Question: What about the GI50 (SNB-19) of the same molecule?
Answer: > 100 µM (inactive)

Question: And the GI50 (CAKI-1)?
Answer: > 100 µM (inactive)

Question: What about the GI50 (HT-29) of the same molecule?
Answer: > 100 µM (inactive)

Question: And the GI50 (OVCAR-4)?
Answer: > 100 µM (inactive)

Question: And the GI50 (SK-MEL-5)?
Answer: > 100 µM (inactive)

Question: And the GI50 (KM12)?
Answer: > 100 µM (inactive)

Question: And the GI50 (SW-620)?
Answer: > 100 µM (inactive)

Question: What about the GI50 (COLO 205) of the same molecule?
Answer: > 100 µM (inactive)

Question: And the GI50 (TK-10)?
Answer: > 100 µM (inactive)

Question: And the GI50 (CCRF-CEM)?
Answer: > 100 µM (inactive)

Question: What about the GI50 (A549) of the same molecule?
Answer: > 100 µM (inactive)

Question: What about the GI50 (NCI-H522) of the same molecule?
Answer: > 100 µM (inactive)

Question: And the GI50 (OVCAR-3)?
Answer: > 100 µM (inactive)

Question: What about the GI50 (ACHN) of the same molecule?
Answer: > 100 µM (inactive)

Question: And the GI50 (SF-539)?
Answer: > 100 µM (inactive)

Question: What about the GI50 (RPMI-8226) of the same molecule?
Answer: > 100 µM (inactive)

Question: What about the GI50 (SK-MEL-2) of the same molecule?
Answer: > 100 µM (inactive)

Question: And the GI50 (IGROV-1)?
Answer: 37.2 µM (inactive)

Question: What about the GI50 (UACC-62) of the same molecule?
Answer: > 100 µM (inactive)

Question: And the GI50 (HCC 2998)?
Answer: > 100 µM (inactive)

Question: What about the GI50 (Malme-3M) of the same molecule?
Answer: > 100 µM (inactive)

Question: What about the GI50 (SN12C) of the same molecule?
Answer: > 100 µM (inactive)

Question: And the GI50 (MOLT-4)?
Answer: > 100 µM (inactive)

Question: What about the GI50 (A498) of the same molecule?
Answer: > 100 µM (inactive)

Question: What about the GI50 (EKVX) of the same molecule?
Answer: 72.8 µM (inactive)

Question: What about the GI50 (SR) of the same molecule?
Answer: > 100 µM (inactive)

Question: And the GI50 (OVCAR-8)?
Answer: > 100 µM (inactive)

Question: And the GI50 (HOP-92)?
Answer: 59 µM (inactive)

Question: What about the GI50 (UACC-257) of the same molecule?
Answer: > 100 µM (inactive)

Question: And the GI50 (MDA-MB-231)?
Answer: > 100 µM (inactive)

Question: And the GI50 (MDA-MB-435)?
Answer: > 100 µM (inactive)

Question: What about the GI50 (NCI-H23) of the same molecule?
Answer: > 100 µM (inactive)

Question: What about the GI50 (HOP-62) of the same molecule?
Answer: > 100 µM (inactive)

Question: What about the GI50 (Hs-578T) of the same molecule?
Answer: > 100 µM (inactive)

Question: And the GI50 (U-251)?
Answer: > 100 µM (inactive)

Question: What about the GI50 (RXF 393) of the same molecule?
Answer: > 100 µM (inactive)

Question: What about the GI50 (LOX IMVI) of the same molecule?
Answer: > 100 µM (inactive)

Question: And the GI50 (PC-3)?
Answer: > 100 µM (inactive)

Question: What about the GI50 (NCI-H460) of the same molecule?
Answer: > 100 µM (inactive)

Question: What about the GI50 (786-0) of the same molecule?
Answer: > 100 µM (inactive)

Question: What about the GI50 (DU-145) of the same molecule?
Answer: > 100 µM (inactive)

Question: And the GI50 (SF-295)?
Answer: > 100 µM (inactive)

Question: What about the GI50 (HCT-116) of the same molecule?
Answer: > 100 µM (inactive)

Question: And the GI50 (NCI/ADR-RES)?
Answer: > 100 µM (inactive)

Question: With `CN(C)/C=C/c1ccncc1` as the molecule, how does the GI50 (T47D) read?
Answer: > 100 µM (inactive)

Question: What about the GI50 (OVCAR-5) of the same molecule?
Answer: > 100 µM (inactive)

Question: And the GI50 (SK-MEL-28)?
Answer: > 100 µM (inactive)

Question: And the GI50 (NCI-H226)?
Answer: > 100 µM (inactive)

Question: What about the GI50 (SK-OV-3) of the same molecule?
Answer: > 100 µM (inactive)

Question: What about the GI50 (SF-268) of the same molecule?
Answer: > 100 µM (inactive)

Question: What about the GI50 (M14) of the same molecule?
Answer: > 100 µM (inactive)

Question: What about the GI50 (BT-549) of the same molecule?
Answer: > 100 µM (inactive)

Question: And the GI50 (MCF7)?
Answer: > 100 µM (inactive)

Question: What about the GI50 (HCT-15) of the same molecule?
Answer: > 100 µM

Question: What about the GI50 (UO-31) of the same molecule?
Answer: > 100 µM (inactive)

Question: And the GI50 (SNB-19)?
Answer: > 100 µM (inactive)

Question: And the GI50 (CAKI-1)?
Answer: > 100 µM (inactive)

Question: What about the GI50 (HT-29) of the same molecule?
Answer: > 100 µM (inactive)

Question: What about the GI50 (OVCAR-4) of the same molecule?
Answer: > 100 µM (inactive)

Question: And the GI50 (SK-MEL-5)?
Answer: > 100 µM (inactive)

Question: What about the GI50 (KM12) of the same molecule?
Answer: > 100 µM (inactive)

Question: And the GI50 (SW-620)?
Answer: > 100 µM (inactive)

Question: What about the GI50 (COLO 205) of the same molecule?
Answer: > 100 µM (inactive)

Question: And the GI50 (TK-10)?
Answer: > 100 µM (inactive)

Question: What about the GI50 (CCRF-CEM) of the same molecule?
Answer: 48.6 µM (inactive)

Question: What about the GI50 (A549) of the same molecule?
Answer: > 100 µM (inactive)

Question: What about the GI50 (NCI-H522) of the same molecule?
Answer: > 100 µM (inactive)

Question: What about the GI50 (OVCAR-3) of the same molecule?
Answer: > 100 µM (inactive)

Question: And the GI50 (ACHN)?
Answer: > 100 µM (inactive)

Question: What about the GI50 (SF-539) of the same molecule?
Answer: > 100 µM (inactive)

Question: What about the GI50 (RPMI-8226) of the same molecule?
Answer: > 100 µM (inactive)

Question: And the GI50 (SK-MEL-2)?
Answer: > 100 µM (inactive)

Question: And the GI50 (IGROV-1)?
Answer: > 100 µM (inactive)

Question: What about the GI50 (UACC-62) of the same molecule?
Answer: > 100 µM (inactive)

Question: What about the GI50 (HCC 2998) of the same molecule?
Answer: > 100 µM (inactive)

Question: And the GI50 (Malme-3M)?
Answer: > 100 µM (inactive)

Question: And the GI50 (SN12C)?
Answer: > 100 µM (inactive)

Question: What about the GI50 (MOLT-4) of the same molecule?
Answer: 28.7 µM (inactive)

Question: What about the GI50 (A498) of the same molecule?
Answer: > 100 µM (inactive)

Question: And the GI50 (EKVX)?
Answer: > 100 µM (inactive)

Question: And the GI50 (SR)?
Answer: > 100 µM (inactive)

Question: And the GI50 (OVCAR-8)?
Answer: > 100 µM (inactive)

Question: And the GI50 (HOP-92)?
Answer: > 100 µM (inactive)

Question: And the GI50 (UACC-257)?
Answer: > 100 µM (inactive)

Question: What about the GI50 (MDA-MB-231) of the same molecule?
Answer: > 100 µM (inactive)

Question: And the GI50 (MDA-N)?
Answer: > 100 µM (inactive)

Question: And the GI50 (MDA-MB-435)?
Answer: > 100 µM (inactive)

Question: And the GI50 (NCI-H23)?
Answer: > 100 µM (inactive)

Question: And the GI50 (HOP-62)?
Answer: > 100 µM (inactive)

Question: And the GI50 (U-251)?
Answer: > 100 µM (inactive)

Question: What about the GI50 (RXF 393) of the same molecule?
Answer: > 100 µM (inactive)

Question: What about the GI50 (LOX IMVI) of the same molecule?
Answer: > 100 µM (inactive)

Question: And the GI50 (K562)?
Answer: > 100 µM (inactive)

Question: What about the GI50 (PC-3) of the same molecule?
Answer: > 100 µM (inactive)

Question: And the GI50 (NCI-H460)?
Answer: > 100 µM (inactive)

Question: What about the GI50 (786-0) of the same molecule?
Answer: > 100 µM (inactive)

Question: And the GI50 (DU-145)?
Answer: > 100 µM (inactive)

Question: And the GI50 (SF-295)?
Answer: > 100 µM (inactive)

Question: What about the GI50 (HCT-116) of the same molecule?
Answer: > 100 µM (inactive)

Question: What about the GI50 (NCI/ADR-RES) of the same molecule?
Answer: > 100 µM (inactive)
